The target in experiment [1] is T1, ROCK II (Rattus norvegicus, UniProt Q62868).
T1 construct: purchased Upstate (Lake Placid, N.Y.)
Description: ROCK II kinase assay with [γ-32P] ATP and myelin basic protein substrate (FIG. 3). The experiment is classed as biochemical. The following applies: 100 μM ATP, 30 min at 30° C. An excerpt: The ability of compounds to inhibit ROK activity may be tested in a cell-free assay system using recombinant ROK, radiaoactive ATP, and Myelin basic Protein (MBP). MBP is a highly phosphorylated protein, is inexpensive to buy in purified form, is phosphorylated by ROK, and is used as the assay substrate for phosphorylation. Recombinant ROK has been prepared from a number of sources. Overexpression in mammalian cells provides a convenient, easily renewed source of ROK activity. Measurement of Rho-associated kinase (ROK) activity is important to determine the potency of novel inhibitors. MBP is a substrate for ROK and a number of other protein kinases, making it useful both to quantitate ROK activity and to indicate the potency and specificity of novel inhibitors for ROK. […]
ROCK II was assayed in 20 mM MOPS, pH 7.2, 25 mM β-glycerophosphate, 5 mM EGTA, 1 mM sodium orthovanadate, 1 mM dithiothreitol with dephosphorylated myelin basic protein (MBP, 0.2 mg/ml) as substrate with or without BA-1016 or BA-1017. […] Assays were initiated by adding Mg^2+/ATP and terminated by spotting 40 μl of each reaction onto phosphocellulose paper (P81 paper, Whatman), followed by washes in 0.75% phosphoric acid to remove ATP and then dried, put in scintillation cocktail and counted to measure ^32P incorporation. Radioactivity is measured using a scintillation counter. […]

The target of experiment [2] is T2, human Rho kinase II (ROCK-II (h)) (Homo sapiens, UniProt O75116).
T2 construct: purchased
T2 sequence (O75116 whole entry): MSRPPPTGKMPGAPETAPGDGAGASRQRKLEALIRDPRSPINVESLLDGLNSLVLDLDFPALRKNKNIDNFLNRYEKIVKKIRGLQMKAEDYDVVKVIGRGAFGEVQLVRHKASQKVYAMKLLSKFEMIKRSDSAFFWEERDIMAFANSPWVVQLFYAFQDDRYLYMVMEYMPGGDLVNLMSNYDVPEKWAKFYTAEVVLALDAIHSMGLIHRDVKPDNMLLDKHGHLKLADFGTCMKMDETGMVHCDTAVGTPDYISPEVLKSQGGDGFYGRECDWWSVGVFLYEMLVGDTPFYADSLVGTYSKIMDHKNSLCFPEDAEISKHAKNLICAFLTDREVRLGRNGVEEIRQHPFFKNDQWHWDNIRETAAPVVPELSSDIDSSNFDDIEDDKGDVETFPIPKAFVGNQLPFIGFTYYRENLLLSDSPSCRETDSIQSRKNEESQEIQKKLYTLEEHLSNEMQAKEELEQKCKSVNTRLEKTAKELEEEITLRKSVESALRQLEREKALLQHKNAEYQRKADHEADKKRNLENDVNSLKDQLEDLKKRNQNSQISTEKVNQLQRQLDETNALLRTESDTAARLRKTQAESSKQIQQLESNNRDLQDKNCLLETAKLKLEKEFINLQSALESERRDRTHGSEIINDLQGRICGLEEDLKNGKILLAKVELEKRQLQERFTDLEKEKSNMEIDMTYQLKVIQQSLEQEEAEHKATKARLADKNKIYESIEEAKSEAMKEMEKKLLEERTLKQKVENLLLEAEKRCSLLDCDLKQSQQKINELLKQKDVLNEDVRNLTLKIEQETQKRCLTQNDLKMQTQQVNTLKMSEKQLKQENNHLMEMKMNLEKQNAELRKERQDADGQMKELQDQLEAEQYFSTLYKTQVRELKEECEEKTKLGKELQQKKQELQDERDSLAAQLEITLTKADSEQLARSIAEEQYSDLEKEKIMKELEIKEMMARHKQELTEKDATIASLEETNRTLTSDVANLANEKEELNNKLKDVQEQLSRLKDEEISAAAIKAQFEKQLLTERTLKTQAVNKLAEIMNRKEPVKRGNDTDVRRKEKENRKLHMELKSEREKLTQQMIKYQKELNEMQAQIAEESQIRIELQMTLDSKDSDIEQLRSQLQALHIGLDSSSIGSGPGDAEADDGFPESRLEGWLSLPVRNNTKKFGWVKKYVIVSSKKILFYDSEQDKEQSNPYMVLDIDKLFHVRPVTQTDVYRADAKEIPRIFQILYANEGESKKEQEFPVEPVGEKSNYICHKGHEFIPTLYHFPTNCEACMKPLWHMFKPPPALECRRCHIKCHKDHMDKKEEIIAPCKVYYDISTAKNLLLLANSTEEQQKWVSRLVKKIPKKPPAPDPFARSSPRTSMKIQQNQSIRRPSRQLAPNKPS
As to the kind of experiment: Commercial inhibition assay with recombinant human ROCKII, IC50 curves (FIGS. 8, 9). The experiment is classed as biochemical. An excerpt: Referring to FIGS. 8 and 9 inhibiton of ROCKII activity and determination of IC50 may also be done throught the use of known (i.e. commercial) inhibition assays that use recombinant human ROCKII.

The subject of experiment [3] is PC12 cells on MAG substrates. Description: Bioassay of PC12 neurite growth on growth inhibitory myelin-associated glycoprotein (MAG) substrates. It is filed as cell-based. How it is done: PC-12 cells (ATCC CRL-1721) typically extend neurites in response to NGF, but when plated on inhibitory substrates, this outgrowth is inhibited and the cells remain round. We tested the ability of the new compound to grow neurites when plated on inhibitory substrates.
We used PC12 cells obtained from the American Type Culture Collection. PC12 cells were grown in Dulbecco's modified eagle's medium (DMEM) with 10% horse serum and 5% fetal bovine serum. To test compounds for the ability to overcome growth inhibition, PC12 cells were collected by detaching with trypsin-EDTA (0.05%), then resuspended in DMEM, 1% FBS, and 50 ng/ml nerve growth factor before plating on MAG substrates. MAG used for substrates was purified from myelin after extraction in 1% octylglucoside and separation by ion exchange chromatography (McKerracher et al. 1994, Neuron 13:805-811). Test substrates were prepared as uniform substrates in 96-well plates by drying overnight in the laminar flow hood (Nalge Nunc, Naperville, Ill.). Plates were precoated with polylysine (100 μg/ml) for 3 hours at 37° C., then washed and dried approx. 1 hour. MAG was prepared as a substrate by drying down 8 μg of protein overnight. After plating on the MAG substrate, the cells were grown at 37 C. for two days in the presence or absence of test compound (BA1003, BA1016, BA1017) to allow neurite growth. Polylysine substrates were used as a positive control. Quantitative analysis of neurite outgrowth was with the aid of Northern Eclipse software (Empix Imaging, Mississauga, Ontario). Data analysis and statistics were with Microsoft Excel.
Referring to FIG. 4 there is shown a graph illustrative of experiments performed in triplicate testing the ability of BA-1003, BA-1016 and BA-1017 to overcome growth inhibition by MAG. PC12 cells were plated on MAG substrates alone (MAG) or MAG substrates in the presence of 0.31 uM, 3.1 um or 31 um concentrations of the test compound. The numbers of neurons that grew neurites were scored, and are shown as the percentage of neurite growth.

Entries after “also recorded” stand apart in the source; their conditions may differ.

T1 sequence (Q62868 11-550 limits assumed): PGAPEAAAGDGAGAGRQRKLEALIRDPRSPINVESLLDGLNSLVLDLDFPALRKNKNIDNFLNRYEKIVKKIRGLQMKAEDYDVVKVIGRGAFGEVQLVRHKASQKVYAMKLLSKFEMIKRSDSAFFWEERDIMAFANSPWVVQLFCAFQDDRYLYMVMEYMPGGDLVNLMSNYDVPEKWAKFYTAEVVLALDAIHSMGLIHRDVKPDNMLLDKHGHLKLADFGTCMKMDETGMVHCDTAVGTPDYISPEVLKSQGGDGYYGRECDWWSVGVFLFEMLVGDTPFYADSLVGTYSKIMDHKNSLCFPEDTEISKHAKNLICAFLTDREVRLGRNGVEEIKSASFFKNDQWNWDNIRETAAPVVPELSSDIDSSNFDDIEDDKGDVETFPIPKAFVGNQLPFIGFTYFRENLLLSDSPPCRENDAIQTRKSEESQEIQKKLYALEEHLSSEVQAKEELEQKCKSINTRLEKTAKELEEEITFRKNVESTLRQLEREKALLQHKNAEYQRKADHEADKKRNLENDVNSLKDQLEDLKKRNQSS

As a reminder, the IC50 is the concentration that inhibits the measured activity by half. Take “(R)-trans-4-(But-3′-en-1′-amino)-N-(4″-pyridyl)cyclohexane Carboxamide Dihydrochloride [BA-1016]”: the “inhibition of ROCKII activity (FIG. 3)” value in experiment [1] is reported as “inhibition of ROCKII activity”. Moreover, in experiment [2], the IC50 was determined as 1900 nM. In addition, in experiment [3] (PC12 cells, 0.31 uM), the “neurite outgrowth on MAG substrates at the lowest concentration tested” value is on record as “better neurite outgrowth”. For the same substance, in experiment [3] (PC12 cells, 0.31, 3.1 or 31 uM, Dihydrochloride), the “neurite outgrowth on inhibitory MAG substrates (FIG. 4)” value is “can promote neurite outgrowth; also recorded: able to overcome growth inhibition by MAG”.

Source of the values: patent US20040138272A1, “1,4-Substituted cyclohexane derivatives” (priority 2002, published 2004).
